Experimental data as given in patent US10307413B2, “Tetrahydro- and dihydro-isoquinoline PRMT5 inhibitors and uses thereof” (Epizyme, Inc., priority 2013, dated 2019).
Where two headings read alike, the source gives them in different places.

Assays:
[1] = test system: symmetric di-methyl arginine in Z-138 cells; assay: Z-138 Methylation Assay (In Cell Western for symmetric di-methyl arginine and DNA content); assay type: cell-based; conditions: read-out: ICW EC50
Text: [formula] [formula] Where top and bottom are the normally allowed to float, but may be fixed at 100 or 0 respectively in a 3-parameter fit. The Hill Coefficient normally allowed to float but may also be fixed at 1 in a 3-parameter fit. Y is the % inhibition and X is the compound concentration.
RPMI/Glutamax medium, penicillin-streptomycin, heat inactivated fetal bovine serum, and D-PBS were purchased from Life Technologies, Grand Island, N.Y., USA. Odyssey blocking buffer, 800CW goat anti-rabbit IgG (H+L) antibody, and Licor Odyssey infrared scanner were purchased from Licor Biosciences, Lincoln, Nebr., USA. Symmetric di-methyl arginine antibody was purchased from EMD Millipore, Billerica, Mass., USA. 16% Paraformaldehyde was purchased from Electron Microscopy Sciences, Hatfield, Pa., USA.
Cell Treatment, in Cell Western (ICW) for Detection of Symmetric Di-Methyl Arginine and DNA Content.
Z-138 cells were seeded in assay medium at a concentration of 50,000 cells per mL to a 384-well cell culture plate with 50 μL per well. Compound (100 nL) from 384 well source plates was added directly to 384 well cell plate. Plates were incubated at 37° C., 5% CO2 for 96 hours. […] Plates were incubated at room temperature for 30 minutes then incubated at 37° C., 5% CO2 for 5 hours. After the incubation, 40 μL per well of 8% paraformaldehyde in PBS (16% paraformaldahyde was diluted to 8% in PBS) was added to each plate and incubated for 30 minutes. […] Next 30 μL per well of Odyssey blocking buffer were added to each plate and incubated 1 hour at room temperature. Blocking buffer was removed and 20 μL per well of primary antibody was added (symmetric di-methyl arginine diluted 1:100 in Odyssey buffer with 0.1% Tween 20 (v/v)) and plates were incubated overnight (16 hours) at 4° C. Plates were washed 5 times with 100 μL per well of wash buffer. Next 20 μL per well of secondary antibody was added (1:200 800CW goat anti-rabbit IgG (H+L) antibody, 1:1000 DRAQ5 (Biostatus limited) in Odyssey buffer with 0.1% Tween 20 (v/v)) and incubated for 1 hour at room temperature. The plates were washed 5 times with 100 μL per well wash buffer then 1 time with 100 μL per well of water. Plates were allowed to dry at room temperature then imaged on the Licor Odyssey machine which measures integrated intensity at 700 nm and 800 nm wavelengths. Both 700 and 800 channels were scanned.
First, the ratio for each well was determined by:
Each plate included fourteen control wells of DMSO only treatment (minimum inhibition) as well as fourteen control wells for maximum inhibition treated with 3 μM of a reference compound (Background wells). The average of the ratio values for each control type was calculated and used to determine the percent inhibition for each test well in the plate. Reference compound was serially diluted three-fold in DMSO for a total of nine test concentrations, beginning at 3 μM. Percent inhibition was determined and IC50 curves were generated using triplicate wells per concentration of compound. Percent Inhibition=100−

[2] = test system: Z-138 cell line; assay: Z-138 Proliferation Assay (Cell Titer Glo, 5 days); assay type: cell-based; conditions: Homo sapiens, 120 h; Z-138 cells, 5 days; read-out: Proliferation EC50
Text: RPMI/Glutamax medium, penicillin-streptomycin, heat inactivated fetal bovine serum were purchased from Life Technologies, Grand Island, N.Y., USA. V-bottom polypropylene 384-well plates were purchased from Greiner Bio-One, Monroe, N.C., USA. Cell culture 384-well white opaque plates were purchased from Perkin Elmer, Waltham, Mass., USA. Cell-Titer Glo® was purchased from Promega Corporation, Madison, Wis., USA. SpectraMax M5 plate reader was purchased from Molecular Devices LLC, Sunnyvale, Calif., USA.
A compound source plate was prepared by performing triplicate nine-point 3-fold serial dilutions in DMSO, beginning at 10 mM (final top concentration of compound in the assay was 20 μM and the DMSO was 0.2%). A 100 nL aliquot from the compound stock plate was added to its respective well in the cell plate. […] After addition of compounds, assay plates were incubated for 5 days at 37° C., 5% CO2, relative humidity >90%.
Cell viability was measured by quantitation of ATP present in the cell cultures, adding […] of Cell Titer Glo® reagent to the cell plates. Luminescence was read in the SpectraMax M5 microplate reader. The concentration of compound inhibiting cell viability by 50% was determined using a 4-parametric fit of the normalized dose response curves.

SMILES	EC50 ([1]; Homo sapiens) [nM]	EC50 [2] [µM]	EC50 [1] [nM]
O=C(NCC(O)CN1CCc2ccccc2C1)c1cccc(-c2ccccn2)c1 (centres unmarked) [Compound 1, N-(3-(3,4-dihydroisoquinolin-2(1H)-yl)-2-hydroxypropyl)-3-(pyridin-2-yl)benzamide]	< 100	1 to 10	
Cn1nccc1-c1cccc(C(=O)NCC(O)CN2CCc3ccccc3C2)c1 (centres unmarked) [Compound 2, N-(3-(3,4-dihydroisoquinolin-2(1H)-yl)-2-hydroxypropyl)-3-(1-methyl-1H-pyrazol-5-yl)benzamide]	< 100	1 to 10	
O=C(NC[C@H](O)CN1CCc2ccccc2C1)c1ccccc1 [Compound 3, (S)—N-(3-(3,4-dihydroisoquinolin-2(1H)-yl)-2-hydroxypropyl)benzamide]	< 100	1 to 10	
O=C(NC[C@H](O)CN1CCc2ccccc2C1)Nc1ccccc1 [Compound 5]	101 to 1000	> 20	
O=C(NCC(O)CN1CCc2ccccc2C1)c1cccc(-c2cccnc2)c1 (centres unmarked) [Compound 8, N-(3-(3,4-dihydroisoquinolin-2(1H)-yl)-2-hydroxypropyl)-3-(pyridin-3-yl)benzamide]	< 100	1 to 10	
O=C(NCC(O)CN1CCc2ccccc2C1)c1cccc(-c2ccncc2)c1 (centres unmarked) [Compound 9, N-(3-(3,4-dihydroisoquinolin-2(1H)-yl)-2-hydroxypropyl)-3-(pyridin-4-yl)benzamide]	< 100	1 to 10	
O=C(NCC(O)CN1CCc2ccccc2C1)c1cccc(-c2cc[nH]n2)c1 (centres unmarked) [Compound 10]	101 to 1000	1 to 10	
O=C(NC[C@@H](O)CN1CCc2ccccc2C1)Oc1ccccc1 [Compound 11, (R)-phenyl (3-(3,4-dihydroisoquinolin-2(1H)-yl)-2-hydroxypropyl)carbamate]	1000 to 10000		
O=C(NCC(O)CN1CCc2ccccc2C1)c1ccc(-c2ccccn2)cc1 (centres unmarked) [Compound 13, N-(3-(3,4-dihydroisoquinolin-2(1H)-yl)-2-hydroxypropyl)-4-(pyridin-2-yl)benzamide]	< 100	0.101 to 1	
O=C(NCC(O)CN1CCc2ccccc2C1)c1cccc(N2CCOCC2)c1 (centres unmarked) [Compound 14, N-(3-(3,4-dihydroisoquinolin-2(1H)-yl)-2-hydroxypropyl)-3-morpholinobenzamide]	101 to 1000	1 to 10	
O=C(NCC(O)CN1CCc2ccccc2C1)c1cccc(CNC2CCOCC2)c1 (centres unmarked) [Compound 15, N-(3-(3,4-dihydroisoquinolin-2(1H)-yl)-2-hydroxypropyl)-3-(((tetrahydro-2H-pyran-4-yl)amino)methyl)benzamide]	101 to 1000	10 to 50	
O=C(NCC(O)CN1CCc2ccccc2C1)c1cccc(NC2CCOCC2)c1 (centres unmarked) [Compound 16, N-(3-(3,4-dihydroisoquinolin-2(1H)-yl)-2-hydroxypropyl)-3-((tetrahydro-2H-pyran-4-yl)amino)benzamide]	< 100	0.101 to 1	
O=C(NC[C@@H](O)CN1CCc2ccccc2C1)c1cccc(-c2ccccn2)c1 [Compound 19]	101 to 1000	10 to 50	
O=C(NC[C@H](O)CN1CCc2ccccc2C1)c1cccc(-c2ccccn2)c1 [Compound 20]	< 100	0.101 to 1	
CS(=O)(=O)Nc1cccc(C(=O)NCC(O)CN2CCc3ccccc3C2)c1 (centres unmarked) [Compound 24]	101 to 1000	1 to 10	
CN(C)CCOc1cccc(C(=O)NCC(O)CN2CCc3ccccc3C2)c1 (centres unmarked) [Compound 28, N-(3-(3,4-dihydroisoquinolin-2(1H)-yl)-2-hydroxypropyl)-3-(2-(dimethylamino)ethoxy)benzamide]	101 to 1000	10 to 50	
O=C(NCC(O)CN1CCc2ccccc2C1)c1cccc(CN2CCNCC2)c1 (centres unmarked) [Compound 29]	101 to 1000	1 to 10	
CN1CCN(Cc2cccc(C(=O)NCC(O)CN3CCc4ccccc4C3)c2)CC1 (centres unmarked) [Compound 30, N-(3-(3,4-dihydroisoquinolin-2(1H)-yl)-2-hydroxypropyl)-3-((4-methylpiperazin-1-yl)methyl)benzamide]	101 to 1000	1 to 10	
CN1CCCC1c1cccc(C(=O)NCC(O)CN2CCc3ccccc3C2)c1 (centres unmarked) [Compound 34, N-(3-(3,4-dihydroisoquinolin-2(1H)-yl)-2-hydroxypropyl)-3-(1-methylpyrrolidin-2-yl) benzamide]	101 to 1000	10 to 50	

SMILES	EC50 ([1]; Homo sapiens) [nM]	EC50 [2] [µM]	EC50 [1] [nM]
O=C(NCC(O)CN1CCc2ccccc2C1)c1cccc(N2CCNCC2)c1 (centres unmarked) [Compound 35, N-(3-(3,4-dihydroisoquinolin-2(1H)-yl)-2-hydroxypropyl)-3-(piperazin-1-yl)benzamide]	101 to 1000	10 to 50	
CN1CCN(c2cccc(C(=O)NCC(O)CN3CCc4ccccc4C3)c2)CC1 (centres unmarked) [Compound 36]	101 to 1000	10 to 50	
O=C(NCC(O)CN1CCc2ccccc2C1)c1cccc(C2CCNC2)c1 (centres unmarked) [Compound 37]	101 to 1000	> 20	
CN1CCC(c2cccc(C(=O)NCC(O)CN3CCc4ccccc4C3)c2)C1 (centres unmarked) [Compound 38, N-(3-(3,4-dihydroisoquinolin-2(1H)-yl)-2-hydroxypropyl)-3-(1-methylpyrrolidin-3-yl)benzamide]	101 to 1000	10 to 50	
Cc1c(NC2CCOCC2)cccc1C(=O)NCC(O)CN1CCc2ccccc2C1 (centres unmarked) [Compound 40, N-(3-(3,4-dihydroisoquinolin-2(1H)-yl)-2-hydroxypropyl)-2-methyl-3-((tetrahydro-2H-pyran-4-yl)amino)benzamide]	< 100	1 to 10	
CCN(c1cccc(C(=O)NCC(O)CN2CCc3ccccc3C2)c1C)C1CCOCC1 (centres unmarked) [Compound 41]	< 100	1 to 10	
O=C(NC[C@@H](O)CN1CCc2ccccc2C1)c1cccc(NC2CCOCC2)c1 [Compound 43]	101 to 1000	1 to 10	
O=C(NC[C@H](O)CN1CCc2ccccc2C1)c1cccc(NC2CCOCC2)c1 [Compound 44, (S)—N-(3-(3,4-dihydroisoquinolin-2(1H)-yl)-2-hydroxypropyl)-3-((tetrahydro-2H-pyran-4-yl)amino)benzamide]		0.101 to 1	
O=C(NCC(O)CN1CCc2ccccc2C1)c1cccc(NC2CCOC2)c1 (centres unmarked) [Compound 45, N-(3-(3,4-dihydroisoquinolin-2(1H)-yl)-2-hydroxypropyl)-3-((tetrahydrofuran-3-yl)amino)benzamide]	101 to 1000		
O=C(NCC(O)CN1CCc2ccccc2C1)c1cccc(NCCN2CCOCC2)c1 (centres unmarked) [Compound 61]	101 to 1000		
COCCNc1cccc(C(=O)NCC(O)CN2CCc3ccccc3C2)c1 (centres unmarked) [Compound 72]	1000 to 10000		
O=C(NCC(O)CN1CCc2ccccc2C1)c1cncc(NC2CCOCC2)n1 (centres unmarked) [Compound 75]	101 to 1000		
O=C(NCC(O)CN1CCc2ccccc2C1)c1nccc(NC2CCOCC2)n1 (centres unmarked) [Compound 76]	101 to 1000		
O=C(NC[C@@H](O)CN1CCc2ccccc2C1)c1cccc(OC2CCOCC2)c1 [Compound 83]	101 to 1000		
CC1=NN(c2ccc(C(=O)NCC(O)CN3CCc4ccccc4C3)cc2)C(=O)C1 (centres unmarked) [Compound 86]	1000 to 10000		
CN1CCC(Oc2cccc(C(=O)NCC(O)CN3CCc4ccccc4C3)c2)C1 (centres unmarked) [Compound 134]		10 to 50	
O=C(O)CCCN1CCN(Cc2cccc(C(=O)NCC(O)CN3CCc4ccccc4C3)c2)CC1 (centres unmarked) [Compound 158]		> 20	
O=C(NC[C@@H](O)CN1CCc2ccccc2C1)c1cc(NC2COC2)ncn1 [Compound 367]			101 to 1000
